Experimental data: paper PMC9981942, “Pharmacokinetics and tissue distribution of Ramulus Mori (Sangzhi) alkaloids in rats and its effects on liver enzyme activity” (Frontiers in Pharmacology, 2023)
“And” between values parts separate entries of the source, which are not always exact repeats. Identical values can stand only once. Like-named read-outs stand apart in the source and are kept apart here.

How the values were obtained:
[1] = Pharmacokinetic study: plasma levels after oral SZ-A in SD rats (LC-MS/MS, DAS 3.2.8); assay type: in vivo; settings: for Tmax / AUC(0-inf) / AUC(0-t) / Cmax / half-life / MRT last / MRT inf: both sexes, rat; for Tmax: SD, po; for Tmax / AUC(0-inf) / AUC(0-t) / Cmax / half-life / MRT last / MRT inf / CLz / VRT(0-t) / VRT(0-∞) / Vz: plasma; for AUC(0-inf) / AUC(0-t) / Cmax / half-life / CLz / VRT(0-t) / VRT(0-∞) / Vz: n=8; for MRT last: n=8, read-out: MRT(0-t); for MRT inf: n=8, read-out: MRT(0-∞)
Experimental: Twenty-four SD rats were fasted for 12 h (free access to water) and randomly classified into three groups (n = 8; half male and female) that received different doses of SZ-A solution (25, 50, and 200 mg/kg) via oral administration. After completion of dose administration, blood samples (0.3 mL) were collected through an indwelling catheter from the jugular vein at predetermined time points (5, 15, 30, and 45 min, 1, 2, 4, 8, and 24 h). The blood was centrifuged at 5,000 rpm for 10 min to separate the plasma. All plasma samples were stored frozen at −80°C until liquid chromatography coupled to tandem mass spectrometry (LC-MS/MS) analysis (AB SCIEX Triple Quad™ 4,500 mass spectrometer, Applied Biosystems Inc., United States).
Primary pharmacokinetic parameters, including Cmax, Tmax, area under the plasma concentration-time curve (AUC), t1/2, clearance rate, and the apparent volume of distribution, were calculated using DAS 3.2.8 (Bio Guider Co., Shanghai, China).

[2] = system: CYP450s in RLMs (other isoenzymes); experiment: Effect on activity of rat liver microsome isoenzymes other than CYP2C11; settings: SZ-A 8.899 μg/mL, DNJ 20 μM, FA 5 μM, DAB 8 μM
[3] = Tissue distribution after single oral SZ-A (20 mg/kg) in ICR mice; assay type: in vivo
Experimental: Twenty SD rats were randomly classified into four groups corresponding to four-time points (5 and 30 min, 4 and 12 h) (n = 20; 5 animals per time point) that received SZ-A solution (40 mg/kg) via oral administration. After the completion of dose administration, plasma and tissue samples (derived from the heart, liver, spleen, lung, kidney, aortic blood vessels, brown adipose tissue, subcutaneous adipose tissue, abdominal adipose tissue, muscle (thigh skeletal muscle), pancreas, and brain) were collected at predetermined time points. Twenty-eight ICR mice were randomly classified into four groups (n = 7 per group) corresponding to four-time points (5 and 30 min, 4 and 12 h) that received SZ-A solution (20 mg/kg) via oral administration. After the completion of dose administration, tissue samples (derived from the heart, liver, spleen, lung, kidney, aortic blood vessels, brown adipose tissue, abdominal adipose tissue, muscle (thigh skeletal muscle), pancreas, and brain) were collected at predetermined time points.
Collected tissue samples were washed with normal saline. The surface moisture was removed by blotting gently with filter paper, and the weight was recorded. After adding an appropriate amount of normal saline, these tissue samples were ground into homogenates using a cryogenic grinder (JX-CL, Shanghai Jingxin, Shanghai, China). The obtained homogenates were stored at −80°C until LC-MS/MS analysis.

major CYP450s in HLMs = experiment: Effect on activity of the major CYP450s in human liver microsomes (all isoforms together); settings: final concentration SZ-A 8.899 μg/mL (equivalent to DNJ 20 μM), FA 5 μM, DAB 8 μM
[4] = set-up: method as in Yang et al., 2017; settings: ref Yang et al., 2017, cited from earlier work
[5] = Identification of metabolites in HLMs/RLMs and rat plasma (Q-Extractive high-resolution MS); assay type: in vitro ADME, human; settings: HLMs/RLMs and rat plasma reaction system
Experimental: Furthermore, 5 μL of the supernatant was collected for LC-MS/MS analysis. The LC-MS/MS conditions were as follows: chromatographic column (XBridge™ Amide, 3.5 µm, 4.6 × 150 mm); mobile phase, water (0.1% ammonia) and acetonitrile, other conditions are the same as those in CYP450s inhibition study, with the following scan parameters: resolution, 70,000; AGC target, 3,000,000; maximum IT, 200 ms; and scan range, 50–600 m/z.

rat CYP2C11 = target: T1, rat CYP2C11 (Rattus norvegicus, UniProt P08683); experiment: Inhibition of CYP450s in rat liver microsomes, probe mephenytoin; settings: RLMs; SZ-A 8.899 μg/mL, DNJ 20 μM, FA 5 μM, DAB 8 μM
T1 sequence (P08683 1-500): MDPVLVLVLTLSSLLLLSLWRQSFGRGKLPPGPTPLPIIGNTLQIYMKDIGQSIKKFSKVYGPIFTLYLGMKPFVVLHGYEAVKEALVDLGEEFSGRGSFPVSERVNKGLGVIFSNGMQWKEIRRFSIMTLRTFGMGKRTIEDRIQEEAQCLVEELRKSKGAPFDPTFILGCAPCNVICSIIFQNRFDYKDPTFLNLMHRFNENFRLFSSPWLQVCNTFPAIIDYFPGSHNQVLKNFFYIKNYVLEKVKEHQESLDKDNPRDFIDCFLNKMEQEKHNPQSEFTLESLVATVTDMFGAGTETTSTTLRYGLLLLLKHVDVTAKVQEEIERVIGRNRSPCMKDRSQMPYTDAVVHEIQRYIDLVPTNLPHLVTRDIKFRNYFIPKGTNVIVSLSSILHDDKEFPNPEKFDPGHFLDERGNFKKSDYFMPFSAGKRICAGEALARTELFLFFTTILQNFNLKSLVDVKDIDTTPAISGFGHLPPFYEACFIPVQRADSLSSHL

## OC[C@H]1NC[C@H](O)[C@@H](O)[C@@H]1O [DNJ, 1-deoxynojirimycin]
[1]; 25 mg/kg, oral SZ-A 25 mg/kg, n=8, read-out: Tmax
  Tmax: 0.41 ± 0.23 h
[1]; 50 mg/kg, oral SZ-A 50 mg/kg, n=8, read-out: Tmax
  Tmax: 0.63 ± 0.33 h
[1]; 200 mg/kg, oral SZ-A 200 mg/kg, n=8, read-out: Tmax
  Tmax: 0.78 ± 0.25 h
[1]; 200 mg/kg, oral SZ-A 25, 50 and 200 mg/kg, read-out: time to maximum plasma concentration (Tmax), all dose groups
  Tmax: ≤ 0.88 h
[1]; oral SZ-A 25 mg/kg
  AUC(0-inf): 7160 ± 1650 ng·h/mL
  AUC(0-t): 7160 ± 1650 ng·h/mL
  Cmax: 4950 ± 978 ng/mL
  half-life: 1.02 ± 0.27 h
  MRT last: 1.27 ± 0.2 h
  MRT inf: 1.27 ± 0.2 h
  CLz: 41.7 ± 11.2 mL/min/kg
  VRT(0-t): 1.15±0.57 h^2
  VRT(0-∞): 1.15±0.57 h^2
  Vz: 3.65 ± 1.45 L/kg
[1]; oral SZ-A 50 mg/kg
  AUC(0-inf): 12600 ± 3470 ng·h/mL
  AUC(0-t): 12600 ± 3470 ng·h/mL
  Cmax: 7080 ± 1640 ng/mL
  half-life: 1.07 ± 0.04 h
  MRT last: 1.51 ± 0.42 h
  MRT inf: 1.51 ± 0.42 h
  CLz: 48 ± 12.7 mL/min/kg
  VRT(0-t): 2.02±1.71 h^2
  VRT(0-∞): 2.02±1.71 h^2
  Vz: 4.47 ± 1.30 L/kg
[1]; oral SZ-A 200 mg/kg
  AUC(0-inf): 38500 ± 18000 ng·h/mL
  AUC(0-t): 38300 ± 18000 ng·h/mL
  Cmax: 19400 ± 10800 ng/mL
  half-life: 3.25 ± 4.2 h
  MRT last: 1.79 ± 0.3 h
  MRT inf: 2.02 ± 0.59 h
  CLz: 74.5 ± 44.2 mL/min/kg
  VRT(0-t): 6.42±4.65 h^2
  VRT(0-∞): 16.10±21.66 h^2
  Vz: 17.77 ± 20.83 L/kg
[1]; oral SZ-A 25, 50, 200 mg/kg
  differences in t1/2 and CLz between the three doses: no significant differences
[2]
  effect on other isoenzymes in RLMs: no obvious effect
[3]
  distribution in aortic vessels compared with other tissues: lower than that in other tissues
  tissues with the highest concentrations: kidney, followed by the liver
Major CYP450s in HLMs
  effect on the major CYP450s in HLMs, either inhibition or activation: no significant effect
[4]; material conservation within 24 h after oral administration of SZ-A
  form excreted: mainly excreted in their original forms
[4]; rats, after oral administration of SZ-A
  oral absolute bioavailability: 72.41% and > 70%
[4]; rats, oral SZ-A 20–500 mg/kg
  pharmacokinetic profile versus dose: non-linear pharmacokinetics
[5]
  metabolites found: no detectable phase I and phase II metabolites
Rat CYP2C11
  effect on rat CYP2C11: mild activation effect
